What was measured:
streptavidin = streptavidin (Streptomyces avidinii, UniProt P22629); assay: homogeneous on-line mass spectrometric biochemical assay, streptavidin / fluorescein-biotin reporter; format: binding; conditions: for effect of analyte injection on binding of reporter fluorescein-biotin to streptavidin (SIM MS signal at m/z 390): equal concentrations injected, 32 nmol/l streptavidin, 96 nmol/l fluorescein-biotin, FIG. 2
Protocol: Streptavidin is a well-known affinity protein with a high affinity for biotin and biotinylated compounds. To a carrier solution consisting of 10 mmol/L ammonium formate/methanol (90:10, v/v) pumped at a flow rate of 50 μl/min a solution of 32 nmol/l streptavidin dissolved in 10 mmol/L ammonium formate was added at a flow rate of 50 μl/min. The mixture was pumped through a knitted […]. poly(tetrafluoroethylene) reaction coil with an internal volume of 17 μl. Subsequently, a solution of 96 nmol/l fluorescein-biotin dissolved in 10 mmol/L ammonium formate/methanol (90:10, v/v) was added at a flow rate of 100 μl/min. The mixture was then pumped through a knitted […]. poly(tetrafluoroethylene) reaction coil with an internal volume of 33 μl and subsequently introduced into a mass spectrometer equipped with an electrospray ionization (ESI) source. Mass spectrometry was operated in selected-ion monitoring (SIM) in the positive-ion (PI) mode on [M+H]+and on one or more intense fragment ions. The ESI source conditions for the streptavidin/biotin system: source temperature, 80° C.; capillary voltage, 3.2 kV. The sampling cone voltage was 30 and 60 V for biotin and fluorescein-labeled biotin, respectively.
At point 1, only carrier buffer was pumped into the mass spectrometer providing a reference background signal. […] At point 3, the streptavidin pump was switched on.

[1] = system: fab fragments of anti-digoxigenin antibodies (fab anti-digoxigenin); assay: homogeneous on-line mass spectrometric biochemical assay, fab anti-digoxigenin / digoxigenin reporter; format: binding; conditions: 100 nmol/l fab anti-digoxigenin, 200 nmol/l digoxigenin; FIG. 3, point 4
Protocol: To a carrier solution consisting of 10 mmol/L ammonium formate/methanol (90:10, v/v) pumped at a flow rate of 50 μl/min a solution of 100 nmol/l fab anti-digoxigenin dissolved in 10 mmol/L ammonium formate was added at a flow rate of 50 μl/min. The mixture was pumped through a knitted 300 μm i.d. poly(tetrafluoroethylene) reaction coil with an internal volume of 65 μl. Subsequently, a solution of 200 nmol/l digoxigenin dissolved in 10 mmol/L ammonium formate/methanol (90:10, v/v) is added at a flow rate of 100 ill/min. The mixture was then pumped through a knitted 300 μm i.d. poly(tetrafluoroethylene) reaction coil with an internal volume of 33 μl and subsequently introduced into a mass spectrometer equipped with an electrospray ionization (ESI) source. Mass spectrometry was operated in selected-ion monitoring (SIM) in the positive-ion (PI) mode on [M+H]+and on one or more intense fragment ions.
At point 1, only carrier buffer was pumped into the mass spectrometer providing a reference background signal. At point 2, the digoxigenin pump was switched on leading to an increase of the selected-ion monitoring MS signal at m/z 408 (the ammonium adduct of digoxigenin). At point 3, the fab anti-digoxigenin pump was switched on.

Chain of streptavidin (P22629 25-183): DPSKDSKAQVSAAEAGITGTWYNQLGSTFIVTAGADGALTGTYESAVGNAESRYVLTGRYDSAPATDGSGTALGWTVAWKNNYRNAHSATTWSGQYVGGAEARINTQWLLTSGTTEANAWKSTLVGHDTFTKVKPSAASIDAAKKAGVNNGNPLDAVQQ

| Compound | effect of analyte injection on binding of reporter fluorescein-biotin to streptavidin (SIM MS signal at m/z 390) (streptavidin) | also measured |
| --- | --- | --- |
| O=C(O)CCCC[C@@H]1SC[C@@H]2NC(=O)N[C@@H]21 [biotin] | capable to prevent the binding of the reporter molecule, fluorescein-biotin, to streptavidin | effect of injection on free streptavidin binding sites / free fluorescein-biotin concentration (SIM MS signal at m/z 390) (streptavidin; FIG. 1, point 4): decrease of free streptavidin binding sites and an increase of the free fluorescein-biotin concentration |
| C[C@H]1O[C@@H](O[C@H]2[C@@H](O)C[C@H](O[C@H]3[C@@H](O)C[C@H](O[C@H]4CC[C@@]5(C)[C@H](CC[C@@H]6[C@@H]5C[C@@H](O)[C@]5(C)[C@@H](C7=CC(=O)OC7)CC[C@]65O)C4)O[C@@H]3C)O[C@@H]2C)C[C@H](O)[C@@H]1O [digoxin] |  | effect of injection on free fab anti-digoxigenin binding sites / free digoxigenin concentration (SIM MS signal at m/z 408) [1]: decrease of free fab anti-digoxigenin binding sites and an increase of the free digoxigenin concentration |
| fluorescein-biotin |  | effect of adding streptavidin on free reporter ligand (SIM MS signal at m/z 390) (streptavidin; FIG. 1, point 3): decrease of the concentration of free fluorescein-biotin |
| NNC(=O)CCCCCNC(=O)CCCC[C@@H]1SC[C@@H]2NC(=O)N[C@@H]21 [N-biotinyl-6-aminocaprioc hydrazide] | capable to prevent the binding of the reporter molecule, fluorescein-biotin, to streptavidin |  |
| N[C@@H](CCCCNC(=O)CCCC[C@@H]1SC[C@@H]2NC(=O)N[C@@H]21)C(=O)O [N-biotin-L-lysine] | capable to prevent the binding of the reporter molecule, fluorescein-biotin, to streptavidin |  |

Reference: US20040053424A1, “Continuous-flow homogeneous biochemical assays based on mass spectrometric detection of known ligands” (priority 2000, published 2004)
